# Measurements reported in ChEMBL document CHEMBL4346705, “(±)-trans-Dihydronarciclasine and (±)-trans-dihydrolycoricidine analogues modified in their ring A: Evaluation of their anticancer activity and a SAR study” (2019).
# Experiments:
# Assay type in all cases: functional
# [1] = tested on: 786-0; experiment: Antiproliferative activity against human 786-0 cells assessed as cell viability at 10^-5 M incubated for 48 hrs by sulforhodamine B assay relative to control; settings: 786-0, 48 h, read-out: Activity
# [2] = tested on: U-251; experiment: Antiproliferative activity against human U251 cells assessed as cell viability at 10^-5 M incubated for 48 hrs by sulforhodamine B assay relative to control; settings: U-251, 48 h, read-out: Activity
# [3] = tested on: COLO 205; experiment: Antiproliferative activity against human COLO205 cells assessed as cell viability at 10^-5 M incubated for 48 hrs by sulforhodamine B assay relative to control; settings: COLO 205, 48 h, read-out: Activity
# [4] = tested on: LOX IMVI; experiment: Antiproliferative activity against human LOXIMVI cells assessed as cell viability at 10^-5 M incubated for 48 hrs by sulforhodamine B assay relative to control; settings: read-out: Activity
# [5] = tested on: A549; experiment: Antiproliferative activity against human A549 cells assessed as cell viability at 10^-5 M incubated for 48 hrs by sulforhodamine B assay relative to control; settings: A549, 48 h, read-out: Activity
# [6] = tested on: UACC-257; experiment: Antiproliferative activity against human UACC257 cells assessed as cell viability at 10^-5 M incubated for 48 hrs by sulforhodamine B assay relative to control; settings: UACC-257, 48 h, read-out: Activity
# [7] = tested on: MDA-MB-231; experiment: Antiproliferative activity against human MDA-MB-231 cells assessed as cell viability at 10^-5 M incubated for 48 hrs by sulforhodamine B assay relative to control; settings: MDA-MB-231, 48 h, read-out: Activity
# [8] = tested on: K562; experiment: Antiproliferative activity against human K562 cells assessed as cell viability at 10^-5 M incubated for 48 hrs by sulforhodamine B assay relative to control; settings: K562, 48 h, read-out: Activity
# [9] = tested on: NCI-H460; experiment: Antiproliferative activity against human NCI-H460 cells assessed as cell viability at 10^-5 M incubated for 48 hrs by sulforhodamine B assay relative to control; settings: NCI-H460, 48 h, read-out: Activity
# [10] = tested on: HCT-116; experiment: Antiproliferative activity against human HCT116 cells assessed as cell viability at 10^-5 M incubated for 48 hrs by sulforhodamine B assay relative to control; settings: HCT-116, 48 h, read-out: Activity
# [11] = tested on: SNB-19; experiment: Antiproliferative activity against human SNB19 cells assessed as cell viability at 10^-5 M incubated for 48 hrs by sulforhodamine B assay relative to control; settings: SNB-19, 48 h, read-out: Activity
# [12] = tested on: SK-OV-3; experiment: Antiproliferative activity against human SKOV3 cells assessed as cell viability at 10^-5 M incubated for 48 hrs by sulforhodamine B assay relative to control; settings: SK-OV-3, 48 h, read-out: Activity
# [13] = tested on: OVCAR-4; experiment: Antiproliferative activity against human OVCAR4 cells assessed as cell viability at 10^-5 M incubated for 48 hrs by sulforhodamine B assay relative to control; settings: OVCAR-4, 48 h, read-out: Activity
# [14] = tested on: Malme-3M; experiment: Antiproliferative activity against human MALME-3M cells assessed as cell viability at 10^-5 M incubated for 48 hrs by sulforhodamine B assay relative to control; settings: read-out: Activity
# [15] = tested on: RXF 393; experiment: Antiproliferative activity against human RXF393 cells assessed as cell viability at 10^-5 M incubated for 48 hrs by sulforhodamine B assay relative to control; settings: RXF 393, 48 h, read-out: Activity
# [16] = tested on: HOP-92; experiment: Antiproliferative activity against human HOP92 cells assessed as cell viability at 10^-5 M incubated for 48 hrs by sulforhodamine B assay relative to control; settings: HOP-92, 48 h, read-out: Activity
# [17] = tested on: HT-29; experiment: Antiproliferative activity against human HT-29 cells assessed as cell viability at 10^-5 M incubated for 48 hrs by sulforhodamine B assay relative to control; settings: HT-29, 48 h, read-out: Activity
# [18] = tested on: MDA-MB-468; experiment: Antiproliferative activity against human MDA-MB-468 cells assessed as cell viability at 10^-5 M incubated for 48 hrs by sulforhodamine B assay relative to control; settings: MDA-MB-468, 48 h, read-out: Activity
# [19] = tested on: SK-MEL-28; experiment: Antiproliferative activity against human SK-MEL-28 cells assessed as cell viability at 10^-5 M incubated for 48 hrs by sulforhodamine B assay relative to control; settings: SK-MEL-28, 48 h, read-out: Activity
# [20] = tested on: BT-549; experiment: Antiproliferative activity against human BT549 cells assessed as cell viability at 10^-5 M incubated for 48 hrs by sulforhodamine B assay relative to control; settings: BT-549, 48 h, read-out: Activity
# [21] = tested on: CAKI-1; experiment: Antiproliferative activity against human Caki1 cells assessed as cell viability at 10^-5 M incubated for 48 hrs by sulforhodamine B assay relative to control; settings: CAKI-1, 48 h, read-out: Activity
# [22] = tested on: NCI-H23; experiment: Antiproliferative activity against human NCI-H23 cells assessed as cell viability at 10^-5 M incubated for 48 hrs by sulforhodamine B assay relative to control; settings: NCI-H23, 48 h, read-out: Activity
# [23] = tested on: SK-MEL-5; experiment: Antiproliferative activity against human SK-MEL-5 cells assessed as cell viability at 10^-5 M incubated for 48 hrs by sulforhodamine B assay relative to control; settings: SK-MEL-5, 48 h, read-out: Activity
# [24] = tested on: HCT-15; experiment: Antiproliferative activity against human HCT15 cells assessed as cell viability at 10^-5 M incubated for 48 hrs by sulforhodamine B assay relative to control; settings: HCT-15, 48 h, read-out: Activity
# [25] = tested on: A498; experiment: Antiproliferative activity against human A498 cells assessed as cell viability at 10^-5 M incubated for 48 hrs by sulforhodamine B assay relative to control; settings: A498, 48 h, read-out: Activity
# [26] = tested on: UACC-62; experiment: Antiproliferative activity against human UACC62 cells assessed as cell viability at 10^-5 M incubated for 48 hrs by sulforhodamine B assay relative to control; settings: UACC-62, 48 h, read-out: Activity
# [27] = tested on: OVCAR-5; experiment: Antiproliferative activity against human OVCAR5 cells assessed as cell viability at 10^-5 M incubated for 48 hrs by sulforhodamine B assay relative to control; settings: OVCAR-5, 48 h, read-out: Activity
SMILES,viability at 10 µM [1],viability at 10 µM [2],viability at 10 µM [3],viability at 10 µM [4],viability at 10 µM [5],viability at 10 µM [6],viability at 10 µM [7],viability at 10 µM [8],viability at 10 µM [9],viability at 10 µM [10],viability at 10 µM [11],viability at 10 µM [12],viability at 10 µM [13],viability at 10 µM [14],viability at 10 µM [15],viability at 10 µM [16],viability at 10 µM [17],viability at 10 µM [18],viability at 10 µM [19],viability at 10 µM [20],further results
COc1cc2c(c(OC)c1OC)C(=O)NC1C2CC(O)C(O)C1O (racemic),94.9%,98.9%,108%,97.7%,98.4%,100%,106%,96.6%,110%,98.9%,99%,99.9%,107%,108%,102%,91.4%,107%,102%,111%,110%,viability at 10 µM [21]: 94.1%; viability at 10 µM [22]: 106%; viability at 10 µM [23]: 104%; viability at 10 µM [24]: 104%; viability at 10 µM [25]: 112%; viability at 10 µM [26]: 94.1%; viability at 10 µM [27]: 106%
CCOc1cc2c(cc1OCC)C1CC(O)C(O)C(O)C1NC2=O (racemic),98.9%,106%,106%,92.8%,101%,97.5%,103%,88.4%,111%,96.3%,105%,95.9%,107%,102%,105%,102%,106%,94.2%,110%,101%,viability at 10 µM [21]: 87%; viability at 10 µM [22]: 96.1%; viability at 10 µM [23]: 99.6%; viability at 10 µM [24]: 101%; viability at 10 µM [25]: 111%; viability at 10 µM [26]: 96.1%; viability at 10 µM [27]: 101%
CCOc1c(OC)cc2c(c1OCC)C(=O)NC1C2CC(O)C(O)C1O (racemic),103%,100%,113%,97.6%,94.2%,103%,107%,91.8%,107%,100%,103%,105%,103%,103%,104%,84%,99.6%,98.1%,108%,103%,viability at 10 µM [21]: 85.2%; viability at 10 µM [22]: 99.9%; viability at 10 µM [23]: 99.8%; viability at 10 µM [24]: 102%; viability at 10 µM [25]: 110%; viability at 10 µM [26]: 95.7%; viability at 10 µM [27]: 108%
